The record followed here is patent publication US20250388565A1, “ESTROGEN RECEPTOR ALPHA DEGRADERS AND METHODS OF USE THEREOF” (Relay Therapeutics, Inc., priority 2022, published 2025).

The experiment addresses T1, ERα protein (HiBiT-tagged) in ESR1_HiBiT KI MCF7 cells (Homo sapiens, UniProt P03372).
T1 sequence (P03372 1-595): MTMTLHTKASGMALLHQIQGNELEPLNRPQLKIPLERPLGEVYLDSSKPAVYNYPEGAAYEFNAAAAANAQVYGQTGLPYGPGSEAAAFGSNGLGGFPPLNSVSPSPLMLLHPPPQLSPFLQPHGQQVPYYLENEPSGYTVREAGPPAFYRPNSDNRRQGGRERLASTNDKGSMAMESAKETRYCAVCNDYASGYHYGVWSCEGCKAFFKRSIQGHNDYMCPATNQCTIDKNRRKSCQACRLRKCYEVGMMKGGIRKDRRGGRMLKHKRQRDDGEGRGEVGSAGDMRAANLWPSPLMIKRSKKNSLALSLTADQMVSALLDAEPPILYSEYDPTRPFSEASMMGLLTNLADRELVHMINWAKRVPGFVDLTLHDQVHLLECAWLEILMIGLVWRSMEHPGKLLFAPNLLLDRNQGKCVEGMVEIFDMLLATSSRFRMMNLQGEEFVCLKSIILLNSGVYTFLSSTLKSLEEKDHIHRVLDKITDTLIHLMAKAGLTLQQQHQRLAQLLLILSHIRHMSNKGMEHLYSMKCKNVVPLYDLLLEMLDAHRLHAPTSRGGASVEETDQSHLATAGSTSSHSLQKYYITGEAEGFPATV
Briefly: Nano Glo HiBiT Lytic Degradation Assay. The format is cell-based. Conditions: 6 hours with compound, 14-point dose response 1:3, bell-shape curve fit, half-maximal effect of first Hill model, read-out: MCF7 ESR1 HiBiT - (DC50). The method in brief:
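HiBiT-tagged endogenous ERα remaining in MCF7 knock-in cells was quantified by lytic luminescence after a 6 h treatment. DC50 values derive from a bell-shaped curve, taken at the first Hill component's half-maximal effect.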
(HiBiT is a short tag that completes a luciferase, so light tracks the accessible tagged protein.)
Broadly, the DC50 is the concentration at which degradation of the target reaches its halfway point. In the case of `O=C1CC[C@H](N2Cc3cc(N4CCN(C[C@H]5CC[C@H](c6ccc([C@@H]7c8ccc(O)cc8CC[C@@H]7c7ccccc7)cc6)CC5)CC4)ccc3C2=O)C(=O)N1` [II-52], the DC50 came to 0.15 nM. The figure for `O=C1CCC(c2ccc3c(c2)C[C@H](N2CCN(CC4CCN(c5ccc([C@@H]6c7ccc(O)cc7CC[C@@H]6c6ccccc6)cc5)CC4)CC2)CC3)C(=O)N1` (single isomer, unassigned) [Compound I-423] is at least 10000 nM. As to `COc1cccc([C@@H]2OCc3cc(O)ccc3[C@@H]2c2ccc(N3CCC(CN4CCN(c5ccc6c(c5)CN([C@H]5CCC(=O)NC5=O)C6=O)CC4)CC3)cc2)c1` [Compound I-374, (S)-3-(5-(4-((1-(4-((3R,4S)-7-hydroxy-3-(3-methoxyphenyl)isochroman-4-yl)phenyl)piperidin-4-yl)methyl)piperazin-1-yl)-1-oxoisoindolin-2-yl)piperidine-2,6-dione], the 50% degradation concentration (DC50) turned out to be 8 nM. With `O=C1CC[C@H](N2Cc3cc(N4CCN(CC5CCN(c6ccc([C@H]7c8ccc(O)cc8CCC78CCCCC8)cc6)CC5)CC4)ccc3C2=O)C(=O)N1` [Compound I-142], the DC50 was at least 10000 nM. Turning to `O=C1CCC(N2Cc3cc(N4CCN(CC5CCN(c6ccc([C@@H]7c8ccc(O)cc8CC[C@@H]7c7cccnc7)cc6)CC5)CC4)ccc3C2=O)C(=O)N1` (single isomer, unassigned) [Compound I-107], the DC50 was at least 10000 nM.

Regarding `C[C@]1(c2ccccc2)CCc2cc(O)ccc2[C@@H]1c1ccc(N2CCC(CN3CCN(c4ccc5c(c4)CN([C@H]4CCC(=O)NC4=O)C5=O)CC3)CC2)cc1` [Compound I-344, (S)-3-(5-(4-((1-(4-((1R,2S)-6-hydroxy-2-methyl-2-phenyl-1,2,3,4-tetrahydronaphthalen-1-yl)phenyl)piperidin-4-yl)methyl)piperazin-1-yl)-1-oxoisoindolin-2-yl)piperidine-2,6-dione], the 50% degradation concentration (DC50) stood at 84 nM. The same measure for `O=C1CCC(n2ncc3cc(N4CCN(CC5CCN(c6ccc([C@@H]7c8ccc(O)cc8CO[C@@H]7c7ccccc7)cc6)CC5)CC4)ccc32)C(=O)N1` (stereo partly drawn) [Compound I-398, 3-(5-(4-((1-(4-((3S,4R)-7-hydroxy-3-phenylisochroman-4-yl)phenyl)piperidin-4-yl)methyl)piperazin-1-yl)-1H-indazol-1-yl)piperidine-2,6-dione]: 0.83 nM; for `O=C1CC[C@H](N2Cc3cc(N4CCN(CC5CCN(c6ccc([C@H]7c8ccc(O)cc8C(F)(F)C[C@H]7c7cc(F)ccc7F)cc6)CC5)CC4)ccc3C2=O)C(=O)N1` [Compound I-317, (S)-3-(5-(4-((1-(4-((1S,2R)-2-(2,5-difluorophenyl)-4,4-difluoro-6-hydroxy-1,2,3,4-tetrahydronaphthalen-1-yl)phenyl)piperidin-4-yl)methyl)piperazin-1-yl)-1-oxoisoindolin-2-yl)piperidine-2,6-dione]: 3 nM; for `[2H]c1cc2c(c([2H])c1O)C([2H])C[C@H](c1ccccc1)[C@@H]2c1ccc(N2CCC(CN3CCN(c4ccc5c(c4)CN([C@H]4CCC(=O)NC4=O)C5=O)CC3)CC2)cn1` (stereo partly drawn) [Compound I-339]: 0.31 nM. The same measure for `C[C@@]1(C2CCCCC2)CCc2cc(O)ccc2[C@@H]1c1ccc(N2CCC(CN3CCN(c4ccc5c(c4)CN([C@H]4CCC(=O)NC4=O)C5=O)CC3)CC2)cc1` [Compound I-237, (S)-3-(5-(4-((1-(4-((1S,2S)-2-cyclohexyl-6-hydroxy-2-methyl-1,2,3,4-tetrahydronaphthalen-1-yl)phenyl)piperidin-4-yl)methyl)piperazin-1-yl)-1-oxoisoindolin-2-yl)piperidine-2,6-dione]: at least 10000 nM. Take `O=C1CC[C@H](N2Cc3cc(N4CCN(CC5CCN(c6ccc([C@@H]7c8ccc(O)cc8CO[C@@H]7c7ccc(C(F)(F)F)cc7)cc6)CC5)CC4)ccc3C2=O)C(=O)N1` [Compound I-349]: the DC50 was determined as 0.39 nM.

As to `C[C@@H]1CN(CC2CCN(c3ccc([C@H]4c5ccc(O)cc5CC[C@H]4c4ccccc4)cc3)CC2)CCN1c1ccc2c(c1)CN([C@H]1CCC(=O)NC1=O)C2=O` (single isomer, unassigned) [II-4], the DC50 turned out to be 1140 nM. The figure for `O=C1CC[C@H](N2Cc3cc(N4CCN(CC5CCN(c6ccc(C7c8ccc(O)cc8CCC7c7ccncc7)cc6)CC5)CC4)ccc3C2=O)C(=O)N1` (stereo in doubt) [Compound I-133, (S)-3-(5-(4-((1-(4-((1R,2S)-6-hydroxy-2-(pyridine-4-yl)-1,2,3,4-tetrahydronaphthalen-1-yl)phenyl)piperidin-4-yl)methyl)piperazin-1-yl)-1-oxoisoindolin-2-yl)piperidine-2,6-dione] is at least 10000 nM. The figure for `O=C1CC[C@H](N2Cc3cc(N4CCN(CC5CCN(c6ccc([C@@H]7c8ccc(O)cc8CC[C@@H]7c7ccc(C(F)(F)F)cc7)cc6)CC5)CC4)ccc3C2=O)C(=O)N1` (single isomer, unassigned) [II-40] is at least 10000 nM; for `O=C1CC[C@H](N2Cc3cc(N4CCN(CC5CCN(c6ccc([C@@H]7c8ccc(O)cc8C(F)(F)C[C@@H]7c7ccc(F)cc7)cc6)CC5)CC4)ccc3C2=O)C(=O)N1` [Compound I-192, (S)-3-(5-(4-((1-(4-((1R,2S)-4,4-difluoro-2-(4-fluorophenyl)-6-hydroxy-1,2,3,4-tetrahydronaphthalen-1-yl)phenyl)piperidin-4-yl)methyl)piperazin-1-yl)-1-oxoisoindolin-2-yl)piperidine-2,6-dione] it is 0.62 nM. The same measure for `O=C1CC[C@H](N2Cc3cc(N4CCN(CC5CCN(c6ccc([C@H]7c8ccc(O)cc8CO[C@H]7C7CCC7)cc6)CC5)CC4)ccc3C2=O)C(=O)N1` [Compound I-244, (S)-3-(5-(4-((1-(4-((3S,4S)-3-cyclobutyl-7-hydroxyisochroman-4-yl)phenyl)piperidin-4-yl)methyl)piperazin-1-yl)-1-oxoisoindolin-2-yl)piperidine-2,6-dione]: 4 nM; for `O=C1CCC(N2Cc3cc(N4CCN(CC5CCN(c6ccc([C@@H]7c8ccc(O)cc8CC[C@@H]7c7ccc(F)cc7)cc6)CC5)CC4)ccc3C2=O)C(=O)N1` (stereo partly drawn) [II-109]: 1.05 nM; for `O=C1CC[C@H](N2Cc3cc(N4CCN(CC5CCN(c6ccc([C@@H]7c8ccc(C(F)(F)F)cc8CC[C@@H]7c7ccccc7)cc6)CC5)CC4)ccc3C2=O)C(=O)N1` [Compound I-46, (S)-3-(1-oxo-5-(4-((1-(4-((1R,2S)-2-phenyl-6-(trifluoromethyl)-1,2,3,4-tetrahydronaphthalen-1-yl)phenyl)piperidin-4-yl)methyl)piperazin-1-yl)isoindolin-2-yl)piperidine-2,6-dione]: at least 10000 nM.

On to `O=C1CCC(N2Cc3cc(N4CCN(CC5CCN(c6ccc([C@@H]7c8ccc(O)cc8C(F)(F)C[C@@H]7c7ccccc7)cc6)CC5)CC4)ccc3C2=O)C(=O)N1` (stereo partly drawn) [Compound I-305, 3-(5-(4-((1-(4-((1R,2S)-4,4-difluoro-6-hydroxy-2-phenyl-1,2,3,4-tetrahydronaphthalen-1-yl)phenyl)piperidin-4-yl)methyl)piperazin-1-yl)-1-oxoisoindolin-2-yl)piperidine-2,6-dione], for which the DC50 stood at 0.32 nM. As to `Cc1ccc([C@H]2CCc3cc(O)ccc3[C@H]2c2ccc(N3CCC(CN4CCN(c5ccc6c(c5)CN([C@H]5CCC(=O)NC5=O)C6=O)CC4)CC3)cc2)cc1` (single isomer, unassigned) [II-36], the 50% degradation concentration (DC50) came out at 0.93 nM. The same measure for `Cn1nc(N2CCC(=O)NC2=O)c2ccc(N3CCN(CC4CCN(c5ccc([C@@H]6c7ccc(O)cc7C(F)(F)C[C@@H]6c6ccccc6)cc5)CC4)CC3)cc21` [Compound I-300, 1-(6-(4-((1-(4-((1R,2S)-4,4-difluoro-6-hydroxy-2-phenyl-1,2,3,4-tetrahydronaphthalen-1-yl)phenyl)piperidin-4-yl)methyl)piperazin-1-yl)-1-methyl-1H-indazol-3-yl)dihydropyrimidine-2,4 (1H,3H)-dione]: 3300 nM. The figure for `O=C1CCC(N2Cc3cc(N4CCN(CC5CCN(c6ccc([C@@H]7c8ccc(O)cc8CC[C@@H]7c7ccccc7)cc6)CC5)CC4)c(F)cc3C2=O)C(=O)N1` (single isomer, unassigned) [II-38] is 1 nM; for `O=C1CC[C@H](N2Cc3cc(N4CCN(CC5CCN(c6c(F)cc([C@H]7c8ccc(O)cc8CC[C@H]7c7ccccc7)cc6F)CC5)CC4)ccc3C2=O)C(=O)N1` [II-83] it is 424 nM; for `C[C@H]1OC2(CCCCC2)[C@H](c2ccc(N3CCC(CN4CCN(c5ccc6c(c5)CN([C@H]5CCC(=O)NC5=O)C6=O)CC4)CC3)cc2)c2ccc(O)cc21` (single isomer, unassigned) [Compound I-269] it is 6 nM.
